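Compound exposure: 48 hours, 5 concentrations, 96-well plates. GI50 = concentration required for 50% inhibition of growth.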 Activity calls are given as the source filed them. No stated cut-off is given here; in the data, active = GI50 up to about 1.1 µM and inactive = higher.
Tests used:
Assay in all cases: NCI tumour cell line growth inhibition, 48 h
RPMI-8226 = system: RPMI-8226
OVCAR-8 = system: OVCAR-8
UACC-257 = system: UACC-257
CAKI-1 = system: CAKI-1
UO-31 = system: UO-31
U-251 = system: U-251
NCI-H23 = system: NCI-H23
M14 = system: M14
SN12C = system: SN12C
IGROV-1 = system: IGROV-1
HCC 2998 = system: HCC 2998
786-0 = system: 786-0
NCI-H226 = system: NCI-H226
OVCAR-5 = system: OVCAR-5
OVCAR-4 = system: OVCAR-4
SF-295 = system: SF-295
SR = system: SR
MCF7 = system: MCF7
MDA-MB-435 = system: MDA-MB-435

Measured: GI50

CCOC(=O)[C@H]1Nc2ccccc2C2c3ccccc3CC21 (some centres not stated)
inactive: RPMI-8226 37.9 µM | OVCAR-8 48.5 µM | UACC-257 22 µM | CAKI-1 > 100 µM | UO-31 68.4 µM | U-251 > 100 µM | NCI-H23 79.6 µM | M14 > 100 µM | SN12C 29.4 µM | IGROV-1 > 100 µM | HCC 2998 48.3 µM | 786-0 > 100 µM | NCI-H226 > 100 µM | OVCAR-5 31.7 µM | OVCAR-4 38.2 µM | SF-295 49 µM | SR 27.4 µM

Cc1c(C(=O)CC(=O)C(=O)Nc2ccccc2C(F)(F)F)[n+]([O-])c2ccccc2[n+]1[O-]
inactive: RPMI-8226 4.69 µM | OVCAR-8 18.2 µM | UACC-257 18.4 µM | CAKI-1 26.7 µM | UO-31 35.1 µM | U-251 19.6 µM | NCI-H23 17.4 µM | M14 15.2 µM | SN12C 22.2 µM | IGROV-1 18 µM | HCC 2998 13.4 µM | 786-0 33.6 µM | NCI-H226 > 100 µM | OVCAR-5 26.8 µM | OVCAR-4 18.1 µM | SF-295 31.6 µM | SR 2.09 µM

COC(=O)c1ccc(CS(=O)(=O)c2ccccc2)cc1
inactive: RPMI-8226 > 100 µM | OVCAR-8 > 100 µM | UACC-257 > 100 µM | CAKI-1 > 100 µM | UO-31 > 100 µM | U-251 > 100 µM | NCI-H23 > 100 µM | M14 49.8 µM | SN12C > 100 µM | IGROV-1 > 100 µM | HCC 2998 > 100 µM | 786-0 > 100 µM | NCI-H226 > 100 µM | OVCAR-5 > 100 µM | OVCAR-4 > 100 µM | SF-295 61.7 µM | SR 45 µM

O=C1OC(CC(=O)c2ccc(Cl)cc2)C(Cl)=C1Cl (configuration not stated)
inactive: RPMI-8226 46.6 µM | OVCAR-8 > 100 µM | UACC-257 > 100 µM | CAKI-1 > 100 µM | UO-31 > 100 µM | U-251 > 100 µM | NCI-H23 > 100 µM | M14 > 100 µM | SN12C > 100 µM | IGROV-1 > 100 µM | HCC 2998 > 100 µM | 786-0 > 100 µM | NCI-H226 > 100 µM | OVCAR-5 > 100 µM | OVCAR-4 > 100 µM | SF-295 > 100 µM | SR 48.3 µM

CC(=O)Oc1ccc2c(-c3ccccc3)c(Oc3ccc(Cl)cc3)c(=O)oc2c1
inactive: RPMI-8226 47.1 µM | OVCAR-8 18.5 µM | UACC-257 21.3 µM | CAKI-1 18.3 µM | UO-31 14.8 µM | U-251 4.19 µM | NCI-H23 18.7 µM | M14 19.8 µM | SN12C 24.1 µM | IGROV-1 15.9 µM | HCC 2998 7.55 µM | 786-0 16.4 µM | NCI-H226 17.3 µM | OVCAR-5 17.9 µM | OVCAR-4 15.2 µM | SF-295 17.9 µM | MCF7 20.7 µM | SR 28.8 µM

NC(=S)N/N=C1\CCCC1C(O)(C(F)(F)Cl)C(F)(F)Cl (configuration not stated)
inactive: RPMI-8226 > 10 µM | OVCAR-8 > 10 µM | UACC-257 > 10 µM | CAKI-1 > 10 µM | U-251 > 10 µM | NCI-H23 > 10 µM | MDA-MB-435 > 10 µM | M14 > 10 µM | SN12C > 10 µM | IGROV-1 > 10 µM | HCC 2998 > 10 µM | 786-0 > 10 µM | NCI-H226 > 10 µM | OVCAR-5 > 10 µM | OVCAR-4 > 10 µM | SF-295 > 10 µM | MCF7 > 10 µM | SR > 10 µM

COc1ccc(/C(=N/NC(N)=O)C2(O)C(=O)Nc3ccc([N+](=O)[O-])cc32)cc1 (configuration not stated)
inactive: RPMI-8226 25.6 µM | OVCAR-8 22.3 µM | UACC-257 21.1 µM | CAKI-1 24.2 µM | UO-31 20.5 µM | U-251 > 10 µM | NCI-H23 17 µM | M14 15.3 µM | SN12C > 10 µM | IGROV-1 31 µM | HCC 2998 37.3 µM | 786-0 15.7 µM | NCI-H226 45.7 µM | OVCAR-5 31.5 µM | OVCAR-4 13.6 µM | SR 17.4 µM

O=C(Cc1ccccc1)NN1C(=O)C(Cl)C1c1ccc([N+](=O)[O-])cc1 (configuration not stated)
inactive: RPMI-8226 23.5 µM | OVCAR-8 > 100 µM | UACC-257 76.4 µM | CAKI-1 > 100 µM | UO-31 > 100 µM | U-251 > 100 µM | NCI-H23 53.5 µM | M14 > 100 µM | SN12C 96.4 µM | IGROV-1 > 100 µM | HCC 2998 > 100 µM | 786-0 > 100 µM | NCI-H226 > 100 µM | OVCAR-5 > 100 µM | OVCAR-4 55.6 µM | SF-295 > 100 µM | SR 32.7 µM
